In patent US10399933B2, “Inhibitors of indoleamine-2,3-dioxygenase for the treatment of cancer” (BRISTOL-MYERS SQUIBB COMPANY, priority 2015, dated 2019):

What follows are compounds tested against human IDO1 (Homo sapiens, UniProt P14902) (assay: Human IDO-1 inhibitory activity in HEK cells (human IDO1/HEK293 cellular assay)). Details: HEK human IDO-1 cellular assay; 500 nM reference standard = 100% inhibition, DMSO = 0%.
Assay type: cell-based
Design: expressed in transfected cells
Experimental: They were cultured in medium (DMEM with 10% FBS) containing 1 mg/ml G418 for two weeks.
The human IDO1/HEK293 cells were seeded at 10,000 cells per 50 μL per well with RPMI/phenol red free media contains 10% FBS in a 384-well black wall clear bottom tissue culture plate (Matrix Technologies LLC) 100 nL of certain concentration of compound was then added to each well using ECHO liquid handling systems. The cells were incubated for 20 hours in 37° C. incubator with 5% CO2.
The compound treatments were stopped by adding trichloroacetic acid (Sigma-Aldrich) to a final concentration at 0.2%. The cell plate was further incubated at 50° C. for 30 minute. The equal volume supernatant (20 μL) and 0.2% (w/v) Ehrlich reagent (4-dimethylaminobenzaldehyde, Sigma-Aldrich) in glacial acetic acid were mixed in a new clear bottom 384-well plate. This plate was then incubated at room temperature for 30 minute. The absorbance at 490 nm was measured on Envision plate reader.

Sequence of human IDO1 (P14902 whole entry): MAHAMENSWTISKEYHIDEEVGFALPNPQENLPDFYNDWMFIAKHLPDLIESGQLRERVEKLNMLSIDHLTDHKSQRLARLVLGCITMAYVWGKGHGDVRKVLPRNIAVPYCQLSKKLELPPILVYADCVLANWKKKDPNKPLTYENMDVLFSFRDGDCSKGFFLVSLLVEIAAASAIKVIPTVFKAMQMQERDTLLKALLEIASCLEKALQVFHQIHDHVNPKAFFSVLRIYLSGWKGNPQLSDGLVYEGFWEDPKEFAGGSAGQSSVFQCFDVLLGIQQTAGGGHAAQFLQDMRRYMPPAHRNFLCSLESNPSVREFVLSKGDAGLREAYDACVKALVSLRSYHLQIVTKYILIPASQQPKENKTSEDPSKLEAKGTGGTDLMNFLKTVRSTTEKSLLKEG

Question: How did the IC50 turn out when `CCOc1ncc(Nc2cc(C(CC)CC(=O)O)cc(F)c2N(CC(C)C)CC(C)C)cn1` (single isomer, unassigned) [Example 119, 3-(4-(diisobutylamino)-3-((2-ethoxypyrimidin-5-yl)amino)-5-fluorophenyl) pentanoic acid] was run?
Answer: The IC50 was under 0.005 µM.

Question: With `CCN(c1ccc([C@H](COC)CC(=O)O)cc1Nc1cnc(OC)nc1)C1CCOCC1` (single isomer, unassigned) [Example 387] as the compound, how does the IC50 read?
Answer: The IC50 was under 0.05 µM.

Question: Which IC50 does the source give for `CCN(c1ccc([C@H](COC)CC(=O)O)cc1Nc1cnc(C)nc1)C1CCOCC1` (single isomer, unassigned) [Example 416] here?
Answer: The IC50 was over 0.05 µM.

Question: `CCC(CC(=O)O)c1ccc(N(CC)C2CCOCC2)c(NC(=O)Nc2ccc(C)cc2)c1` (single isomer, unassigned) [Example 487 Enantiomer 2, 3-(4-(Ethyl(tetrahydro-2H-pyran-4-yl)amino)-3-(3-(p-tolyl)ureido)phenyl)pentanoic Acid] was tested. Which IC50 did it give?
Answer: Its IC50 is under 0.005 µM.

Question: With `CCC(CC(=O)O)c1ccc(N(CC)C2CCOCC2)c(NC(=O)Nc2cnc(C)nc2)c1` (single isomer, unassigned) [Example 488 Enantiomer 2, 3-(4-(Ethyl(tetrahydro-2H-pyran-4-yl)amino)-3-(3-(2-methylpyrimidin-5-yl)ureido)phenyl)pentanoic Acid] as the compound, how does the IC50 read?
Answer: The IC50 was over 0.05 µM.

Question: Which IC50 does the source give for `CCN(c1ccc(C(CC(=O)O)c2ccccc2)cc1NC(=O)Nc1ccc(C)cc1)C1CCOCC1` (single isomer, unassigned) [Example 594, 3-(4-(Ethyl(tetrahydro-2H-pyran-4-yl)amino)-3-(3-(p-tolyl)ureido)phenyl)-3-phenylpropanoic Acid] here?
Answer: Its IC50 is over 0.05 µM.

Question: Which IC50 does the source give for `CCN(c1ccc(C(CC(=O)O)c2ccccc2)cc1NC(=O)Nc1cc(C)on1)C1CCOCC1` (single isomer, unassigned) [Example 597, 3-(4-(ethyl(tetrahydro-2H-pyran-4-yl)amino)-3-(3-(5-methylisoxazol-3-yl)ureido)phenyl)-3-phenylpropanoic acid] here?
Answer: Its IC50 is over 0.05 µM.

Question: How did the IC50 turn out when `CCN(c1ccc(C(C)CC(=O)O)cc1Nc1ccc(Cl)cc1)C1CCOCC1` (single isomer, unassigned) [Example 612 E2, 3-(3-((4-Chlorophenyl)amino)-4-(ethyl(tetrahydro-2H-pyran-4-yl)amino)phenyl)butanoic Acid] was run?
Answer: Its IC50 is under 0.005 µM.

Question: Which IC50 does the source give for `CCN(c1ccc(C(C)CC(=O)O)cc1NC(=O)Nc1ccc(Cl)cc1F)C1CCOCC1` (single isomer, unassigned) [Example 637 E2, 3-(3-(3-(4-Chloro-2-fluorophenyl)ureido)-4-(ethyl (tetrahydro-2H-pyran-4-yl)amino)phenyl)butanoic Acid] here?
Answer: Its IC50 is under 0.005 µM.

Question: For `CCCOc1ncc(Nc2cc(C(CC)CC(=O)O)ccc2N(CC(C)C)C2CCCCC2)cn1` (single isomer, unassigned) [Example 654, 3-(4-(cyclohexyl(isobutyl)amino)-3-((2-propoxypyrimidin-5-yl)amino)phenyl)pentanoic acid], which IC50 is on record?
Answer: Its IC50 is under 0.005 µM.

Question: How did the IC50 turn out when `CCCN(CC1CC1)c1ccc(C(CC)CC(=O)O)cc1Nc1ccc(Cl)cc1` (single isomer, unassigned) [Example 656 E2, 3-(3-((4-Chlorophenyl)amino)-4-((cyclopropylmethyl) (propyl)amino)phenyl)pentanoic Acid] was run?
Answer: Its IC50 is under 0.005 µM.

Question: `CCC(CC(=O)O)c1ccc(N2C[C@@H]3C[C@H]2CN3Cc2ccccc2)c(Nc2ccc(C)cc2)c1` (single isomer, unassigned) [Example 666 E2] was tested. Which IC50 did it give?
Answer: The IC50 was under 0.005 µM.

Question: For `CCC(CC(=O)O)c1ccc(N(CC(C)C)C(C)C)c(Nc2ccc3nc(C)sc3c2)c1` (single isomer, unassigned) [Example 730, 3-(4-(isobutyl(isopropyl)amino)-3-((2-methylbenzo[d]thiazol-6-yl)amino)phenyl)pentanoic acid], which IC50 is on record?
Answer: Its IC50 is over 0.05 µM.

Question: For `CCC(CC(=O)O)c1ccc(N2CCC[C@H]2C(C)(C)F)c(NC(=O)Nc2ccc(OC)cc2F)c1` (single isomer, unassigned) [Example 793], which IC50 is on record?
Answer: Its IC50 is over 0.05 µM.

Question: `CCC(CC(=O)O)c1ccc(N2CCC[C@H]2C(C)(C)O)c(NC(=O)Nc2cc(C)on2)c1` (single isomer, unassigned) [Example 831] was tested. Which IC50 did it give?
Answer: The IC50 was over 0.05 µM.
